Laboratory results published in the OPERA property sets (Mansouri et al. 2018).

Going from COc1cccc(S(I)=C(N(C)C)N(C)C)c1 (stereo not drawn) to CN(C)C(N(C)C)=S(I)c1cc(Cl)ccc1Cl (stereo not drawn), the logP rises from -0.5 to 0.05.

Compared with CC(=O)Nc1ccccc1, CC(=O)Oc1ccccc1 is higher in logP: 1.16 for the first, 1.49 for the second.

First: CN(C)c1nc2c3cccnc3ccc2n1C
Second: Nc1cccc2ncccc12
The logP of the first is higher: 2.28 for the first, 1.16 for the second.

Compared with COc1cc(C(O)CN)ccc1O (stereo not drawn), COc1ccc(CCN)cc1OC is higher in logP: -1.05 for the first, 0.77 for the second.

Compared with CCC(=O)OC1(C(=O)CBr)C(C)CC2C3CCC4=CC(=O)C=CC4(C)C3(F)C(=O)CC21C (stereo not drawn), COC(=O)CCC(=O)OCC(=O)C1(O)CCC2C3CCC4=CC(=O)CCC4(C)C3C(O)CC21C (stereo not drawn) is lower in logP: 3.55 for the first, 2.6 for the second.

Going from CCCCC(CC)COP(=O)(Oc1ccccc1)Oc1ccccc1 (stereo not drawn) to O=C(COc1ccccc1)Nc1ccccc1, the logP falls from 5.73 to 2.73.

Going from CCCCCCOc1ccc(NC(=O)OCCN2CCCCC2)cc1 to COc1ccc(OCC(=O)NNC(C)C)cc1, the logP falls from 5.41 to 1.21.

First: CON=C(C(=O)NC1C(=O)N2C(C(=O)OCOC(=O)C(C)(C)C)=C(CSc3nnnn3C)CSC12)c1csc(N)n1 (stereo not drawn)
Second: COC(=O)CCC(NC(=O)c1ccc(N(C)Cc2cnc3nc(N)nc(N)c3n2)cc1)C(=O)OC (stereo not drawn)
The logP of the first is higher: 1.74 for the first, 0.54 for the second.

First: FS(F)(F)(F)(F)c1ccccc1
Second: CP(C)c1ccccc1
The logP of the first is higher: 3.36 for the first, 2.57 for the second.

Going from CCN(CC)S(=O)(=O)c1ccc(OC)c(N)c1 to COc1cc(CCN)cc(OC)c1Br, the logP rises from 1.7 to 2.03.

Going from CC(C)(C)C(N)Cc1ccccc1 (stereo not drawn) to CC(C)N(C(=O)CCl)c1ccccc1, the logP falls from 2.91 to 2.18.

Compared with BrC1CCCCC1, C1CC1 is lower in logP: 3.2 for the first, 1.72 for the second.

Compared with COC(C)(C)CCCC(C)C/C=C/C(C)=C/C(=O)OC(C)C (stereo not drawn), CCC(C)C(NC(=O)C(CCCCN)NC(C)=O)C(=O)NC(Cc1ccccc1)C(N)=O (stereo not drawn) is lower in logP: 5.5 for the first, 0.65 for the second.

Compared with CC1CO1 (stereo not drawn), C=C1C(=O)OC2C1CCC(C)C1C=CC(=O)C12C (stereo not drawn) is higher in logP: 0.03 for the first, 1.03 for the second.

Going from CN(C)C(N(C)C)=S(I)c1ccccc1C(=O)O (stereo not drawn) to CN(C)C(=O)c1ccccc1O, the logP rises from -1.4 to 0.44.

First: Cc1cccc(N)c1
Second: Nc1ccc(F)c(Cl)c1
The logP of the first is lower: 1.4 for the first, 2.06 for the second.

First: NC(Cc1ccc(O)c(O)c1)C(=O)OCc1cccc(C(F)(F)F)c1 (stereo not drawn)
Second: O=C(O)Cc1ccc2ccccc2c1
The logP of the first is lower: 2.29 for the first, 2.81 for the second.

Going from CC1=C(O)C(=O)c2ccccc2C1=O to NNS(=O)(=O)c1ccccc1, the logP falls from 1.2 to -0.14.

Going from c1ccc2c(c1)sc1ccccc12 to O=[N+]([O-])c1cccc(-c2ccccc2)c1, the logP falls from 4.38 to 3.87.

Compared with CN1CCN(CCCN2c3ccccc3Sc3ccc(C(F)(F)F)cc32)CC1, CCCCn1nnc2ccccc21 is lower in logP: 5.03 for the first, 2.57 for the second.

CNC(=O)Oc1ccc([N+](=O)[O-])cc1 and CN(C)C(=O)Nc1ccc([N+](=O)[O-])cc1 are within 0.2 log units of each other in logP: 1.47 for the first, 1.51 for the second.

Going from CN(N=O)C(=O)Nc1ccc(F)cc1 to CC(=O)Nc1cccc(NC(C)=O)c1, the logP falls from 1.88 to 0.5.

Compared with c1ccc2c(c1)CCCC2, c1ccc(N2CCOCC2)cc1 is lower in logP: 3.49 for the first, 1.36 for the second.

Going from Cc1ccc(C=NO)cc1 to Cc1ccc2[nH]ccc2c1, the logP rises from 2.4 to 2.68.

Compared with CCN(CC)C(=O)N(CC)N=O, CCN(CC)C(=O)c1cccnc1 is lower in logP: 1.54 for the first, 0.33 for the second.

Going from CI to C=CC#N, the logP falls from 1.51 to 0.25.

Compared with N#Cc1cccc(CC(=O)O)c1, Oc1cccc(O)c1 is lower in logP: 1.18 for the first, 0.8 for the second.

Compared with NNC(=O)c1ccccc1N, CNC(=O)Oc1ccccc1OC is higher in logP: -0.18 for the first, 0.81 for the second.

First: COc1cc(Cl)cc(Cl)c1
Second: O=C(O)c1cc(Cl)cc(Cl)c1
The logP of the first is higher: 3.8 for the first, 3 for the second.

Going from CC(=O)Nc1ncccn1 to CC(=O)c1ccnc2cc(Cl)ccc12, the logP rises from -0.75 to 2.62.

Compared with CCC(C)n1c(=O)[nH]c(C)c(Br)c1=O (stereo not drawn), Cc1[nH]ccc(=O)c1O is lower in logP: 2.11 for the first, -0.49 for the second.

Going from COc1ccc(-c2cc3cnccc3[nH]2)c(OC)c1 to C/C(=N/Nc1nc(C)cc(C)n1)c1ccccc1C, the logP falls from 3.5 to 2.98.

Compared with O=[N+]([O-])c1cc(Cl)c(O)c(Cl)c1, O=[N+]([O-])c1ccc(Cl)c(Cl)c1Cl is higher in logP: 2.94 for the first, 3.61 for the second.

First: C1=c2ccc3cccc4ccc(c2c43)CC1
Second: Oc1ccc(Sc2ccc(O)cc2)cc1
The logP of the first is higher: 4.92 for the first, 3.34 for the second.

Compared with O=C(O)CCCCCC(=O)O, O=C(O)CC[Se]Cc1ccc([N+](=O)[O-])cc1 is higher in logP: 0.61 for the first, 1.63 for the second.

Going from FC(Cl)Cl to Clc1nc(Cl)c(Cl)[nH]1, the logP rises from 1.55 to 1.85.

Compared with S=C=Nc1ccc(-c2ccccc2)cc1, Nc1ncnc2nc(-c3ccccc3)[nH]c12 is lower in logP: 4.66 for the first, 2.31 for the second.

First: CCCN(CCC)c1c([N+](=O)[O-])cc(C(F)(F)F)cc1[N+](=O)[O-]
Second: N#CCc1ccc([N+](=O)[O-])cc1
The logP of the first is higher: 5.34 for the first, 1.37 for the second.

Nc1ncc(Cc2ccccc2)c(N)n1 and COCCOc1ccccc1 are within 0.2 log units of each other in logP: 1.58 for the first, 1.73 for the second.

Compared with O=C1CCCCCCCCCCC1, CC(C)Cc1cc(C(=O)NN)ccn1 is lower in logP: 4.1 for the first, 1.02 for the second.

Going from CC(C)(C)c1cccc(C(C)(C)C)n1 to CCSCCSP(=O)(OC)OC, the logP falls from 4.14 to 1.02.

In the case of N#CCC(N)=C(C#N)C#N, the logP is reported as -0.13.
